# Source: patent publication US20110092453A1, “TREATMENTS AND PREVENTION OF HYDROCEPHALUS” (THE UNIVERSITY OF MANCHESTER, priority 2007, published 2011)
# Experiments:
# [1] = tested on: germinal epithelium cells; details: in the presence of 10% HC CSF; n=3
# [2] = Effect of supplementation on mother's weight through pregnancy; type: in vivo, rat; details: 2.5 mg/kg daily injection from 14 days prior to mating to day 20; no significant differences
# Procedure: Mothers were injected daily with 2.5 mg/kg of the supplements folic acid or folinic acid or saline controls. Injections were started 14 days prior to mating and continued throughout pregnancy up to harvesting of the fetuses at day 20. Mothers were weighed at the same time each day and data converted to % of starting weight at day 0. Results were averaged across the 3 mothers (2 for saline treatment) and are plotted as shown mean±SD.
# The hypothesis was tested further using the H-Tx model of EOHC. Mothers were injected daily with 2.5 mg/kg of the supplements folic acid (3 mothers-31 pups) or folinic acid (3 mothers-35 pups) or saline controls (2 mothers-20 pups). Injections were started 14 days prior to mating and continued throughout pregnancy up to harvesting of the fetuses at day 20.
# [3] = human population, supplementation of female diets; data from reports; cited from earlier work
# H-Tx model of EOHC = experiment: In vivo supplementation of mothers, numbers of affected HC fetuses; parameters: species or system rat; details: long term: 2.5 mg/kg daily from 14 days prior to mating to day 20; saline controls 45%
# Procedure: (§1) Mothers were injected daily with 2.5 mg/kg of the supplements folic acid or folinic acid or saline controls. Injections were started 14 days prior to mating and continued throughout pregnancy up to harvesting of the fetuses at day 20. Fetuses were harvested on Day20 of gestation and each fetus was scored as affected HC or normal. The percentage of normal or affected fetuses in each litter was then calculated and results were averaged across the 3 mothers (2 for saline treatment) and are plotted as shown, mean±SD.
# as §1, with “acid.” for “acid or saline controls.”, “at E17 of the pregnancy” for “14 days prior to mating”, “through the rest of the” for “throughout”
# Timed pregnancies of H-Tx or Wistar rats were harvested from pregnant dams killed by intraperitoneal injection of sodium pentobarbitone. […]
# Female rats were handled for one week prior to the start of the supplementation protocol to decrease handling stress. […] Stained sections were photographed on a Lecia DMLB photomicroscope and analysed using Metaview software. […]
weight of the mothers compared to saline treated animals [2],Compound,"uptake, % of that in the absence of added CSF [1] [%]",effect on the incidence of HC [3],incidence of HC (percentage of affected fetuses in the litter) (H-Tx model of EOHC) [%]
–,Nc1nc2ncc(CNc3ccc(C(=O)N[C@@H](CCC(=O)O)C(=O)O)cc3)nc2c(=O)[nH]1 [[^3H]-folic acid],53±13,–,–
slightly increased weight,Nc1nc2ncc(CNc3ccc(C(=O)N[C@@H](CCC(=O)O)C(=O)O)cc3)nc2c(=O)[nH]1 [folic acid],–,does not have any significant effect,60
